Source: patent publication US10441669B2, “Multifunctional chelators, complexes, and compositions thereof, and methods of using same” (ILLINOIS INSTITUTE OF TECHNOLOGY, priority 2013, dated 2019)
Like-named read-outs stand apart in the source and are kept apart here.

Columns and labels:
[1] = set-up: species or system mice; conditions: mouse, in vivo
[2] = pH 7
Method: (§3) In vitro serum stability of 5p-C-NETA and NETA-RGD conjugates radiolabeled with ^90Y or ^177Lu was performed to determine if NETA chelators or NETA-RGD conjugates radiolabeled with ^90Y or ^177Lu remained stable without loss of ^90Y or ^177Lu in human serum. This was assessed by measuring the transfer of ^90Y or ^177Lu from the complex to serum proteins over the course of 14 days using ITLC. ^90Y or ^177Lu-radiolabeled complexes was prepared from the reactions of the bifunctional chelators with ^90Y or ^177Lu at room temperature and directly used for serum stability studies (37° C., pH 7).

[3] = pH 7; remark: listed apart in the source
Method: as §3

[4] = In vitro serum stability of 90Y-radiolabeled 3p-C complexes; type: in vitro ADME; conditions: human serum, 37° C., in 72 h (3 days)
Method: (§1) A significant amount of the radioactivity from both ^90Y-3p-C-DEPA (4) and ^177Lu-3p-C-DEPA (4) was transchelated to serum (25% and 40% in 72 h, respectively). As expected, both ^90Y and ^177Lu complexes of 3p-C-NOTA […] were not stable in serum, and ˜80% of ^90Y and ˜36% of ^177Lu was released from the complexes on day 7. […] However, ^90Y-3p-C-NE3TA underwent rapid dissociation, losing ˜25% of ^90Y to serum in 3 days.
(§2) Human serum was purchased from Gemini Bioproducts (#100110). ^90Y- or ^177Lu-radiolabeled complexes (0.25M NH40OAc, pH 5.5) were prepared from the reaction of chelators with ^90Y or ^177Lu at room temperature or 37° C. Completion of radiolabeling was monitored by ITLC eluted, and the freshly prepared radiolabeled complexes were used for serum stability without further purification. ^90Y-3p-C-DETA, ^90Y-3p-C-NE3TA and ^90Y-3-C-NOTA were prepared by a reaction of 3p-C-DETA (1), 3p-C-NE3TA (2) and 3p-C-NOTA (3) (50 μg) with ^90Y (150 μCi) in 0.25 M NH4OAc buffer (pH 7.0). […] The stability of the radiolabeled complexes in human serum was evaluated at 37° C. over 14 days. The serum stability of the radiolabeled complexes was assessed by measuring the transfer of the radionuclide from each complex to serum proteins using ITLC eluted with CH3CN/H2O (3:2 v/v) or 20 mM EDTA in 0.15 M NH4OAc. […]

[5] = In vitro serum stability of 177Lu-radiolabeled 3p-C complexes; type: in vitro ADME; conditions: human serum, 37° C., in 72 h
Method: as §1, §2

[6] = In vitro serum stability of 90Y-radiolabeled 5p-C-NETA and NETA-RGD; conditions: 37° C., pH 7, 14 days, ITLC
Method: as §3

[7] = In vitro serum stability of 177Lu-radiolabeled 5p-C-NETA and NETA-RGD; conditions: 37° C., pH 7, 14 days, ITLC
Method: as §3

[8] = In vitro serum stability of 64Cu-radiolabeled complexes of chelators A-F; type: in vitro ADME; conditions: human serum, over 2 days; listed as 64Cu-chelator E
Method: In vitro serum stability of the radiolabeled complexes was performed to determine if the chelators radiolabeled with ^64Cu remained stable without loss of the radioactivity in human serum. This was assessed by measuring the transfer of ^64Cu from the complex to human serum proteins using ITLC (20 mM EDTA in 0.15M NH4OAc, Table 2). ^64Cu-radiolabeled chelators were readily prepared from the reactions of the chelators with ^64Cu at room temperature. Essentially no unbound ^64Cu was detected in the reaction mixture at 2 h time point after the reaction at room temperature as determined by ITLC. The ^64Cu-radiolabeled chelators were directly used for serum stability studies (pH 7, 37° C.) without further purification. All ^64Cu-radiolabeled complexes remained intact in human serum for 2 days as evidenced by ITLC analysis (Supporting Information). […] A tiny amount of ^64Cu (<0.3%) was detected from other ^64Cu-complexes of chelators B, D-F.
The freshly prepared radiolabeled complexes were directly used for serum stability studies without further purification. ^64Cu-radiolabeled complex (85 μCi, 10 μL) was added to human serum (90 μL) in a microcentrifuge tube. The stability of ^64Cu-radiolabeled complexes in human serum was evaluated at 37° C. for 2 days. A solution of the radiolabeled complex in serum was withdrawn at the designated time points and evaluated by ITLC as described above.

[9] = EDTA challenge of 64Cu-radiolabeled complexes of chelators A-F; type: physicochemical; conditions: EDTA 100-fold molar excess; for Bound complex (%): 64Cu complex, 37° C.
Method: ^64Cu-radiolabeled complexes were further evaluated for complex stability based on EDTA challenge. ^64Cu-radiolabeled complexes were freshly prepared and treated with a solution of EDTA at a 100-fold molar excess, and the resulting solution (pH 5.5) was incubated at 37° C. for 24 h. […] Among the complexes tested, ^64Cu-radiolabeled pentadentate chelator B was least tolerant of EDTA treated, and most of ^64Cu was dissociated from the complex (˜80%) at 24 h time point. ^64Cu-radiolabeled chelator C containing the carbonyl donor group was found dissociated rapidly in the presence of the excess EDTA, and 50% of the activity was transchelated by EDTA at 1 h time point. ^64Cu-radiolabeled chelators D and F with the respective hydroxyl and thiophenyl donor group were slower in dissociation than ^64Cu-radiolabeled chelators B and C and released >45% of ^64Cu at 24 h time point. Dissociation of the activity from the ^64Cu-radiolabeled chelators was also measured using radio-HPLC at 25 h time point (FIG. 5). The peak related to ^64Cu-EDTA (tR=2.5 min) was clearly separated from bound ^64Cu complex of the chelators. ^64Cu-radiolabeled complex of polar chelators E and F have the respective retention time at […] and 6.2 min, while other ^64Cu-radiolabeled complexes have similar retention time (tR=7˜8 min). The ^64Cu-radiolabeled chelators C and D gave a small peak (tR=˜3 min and tR=˜7 min, respectively).
^64Cu-radiolabeled complexes were prepared by reaction of each chelator (20 μg) with ^64Cu (60 μCi) in 0.25M NH4OAc buffer (pH 5.5) for 2 h at room temperature. The radiolabeled complexes were prepared as described above and directly used for the experiments. ^64Cu-radiolabeled complex was mixed with EDTA at a 100-fold molar excess. The resulting mixture was incubated for 24 h at 37° C. The stability of ^64Cu-radiolabeled complexes in the solution was evaluated using ITLC (20 mM EDTA in 0.15M NH4OAc). A solution of the radiolabeled complex in serum (3˜20 μL) was withdrawn at the designated time points and evaluated by ITLC as described above. Stability of the complexes was also evaluated at 25 h time point by HPLC (solvent A: 0.1% TFA in H2O, solvent B: 0.1% TFA in CH3CN, 0-100% B/15 min, flow rate: 1 mL/min). ^64Cu-EDTA complex was eluted early (tR=˜2.5 min), while ^64Cu-radiolabeled complexes of chelators A-D, E, and F have the respective retention time (tR=7˜8 min, tR=4.6 min, and tR=6.2 min).

[10] = Stability and radioactivity level of 64Cu complexes in mice; type: in vivo; conditions: 64Cu complex

N=C(N)NCCC[C@@H]1NC(=O)[C@H](CCCCNC(=S)Nc2ccc(CCCCCC(CN3CCN(CC(=O)O)CCN(CC(=O)O)CC3)N(CC(=O)O)CC(=O)O)cc2)NC(=O)[C@@H](Cc2ccc(O)cc2)NC(=O)[C@H](CC(=O)O)NC(=O)CNC1=O (stereo partly shown) [5p-C-NETA-RGD]
tumor targeting and biodistribution profile [1]: target tumors in mice and produced a favorable biodistribution profile with rapid blood clearance and low organ uptake
stability of 90Y complex in human serum [2]: remained quite stable in human serum over 2 weeks period
stability of 177Lu complex in human serum [3]: remained quite stable in human serum over 2 weeks period

O=C(O)CN1CCN(CC(=O)O)CCN(CC(CCCc2ccc([N+](=O)[O-])cc2)N(CC(=O)O)CC(=O)O)CCN(CC(=O)O)CC1 (stereo not shown) [Chelator 3p-C-DEPA]
90Y transchelated/lost to serum [4]: 25%
177Lu transchelated to serum [5]: 40%

O=C(O)CN1CCN(CC(=O)O)CCN(CC(CCCCCc2ccc([N+](=O)[O-])cc2)N(CC(=O)O)CC(=O)O)CC1 (stereo not shown) [Chelator 5p-C-NETA, 2-({1-[4,7-bis(carboxymethyl)-1,4,7-triazonan-1-yl]-7-(4-nitrophenyl)heptan-2-yl}(carboxy-methyl)amino)acetic acid]
stability of 90Y complex in human serum [6]: remained stable in human serum without releasing the radioactivity into the serum
stability of 177Lu complex in human serum [7]: remained stable in human serum without releasing the radioactivity into the serum

O=C(O)CN1CCN(CC(=O)O)CCN(Cc2ccccn2)CC1 [Chelator E, 2-[4-(carboxymethyl)-7-(pyridin-2-ylmethyl)-1,4,7-triazonan-1-yl]acetic acid]
64Cu dissociated/released from the complex in serum [8]: No measurable radioactivity was released
Bound complex (%) ([9]; pH 5.5, ITLC, 0 h): 99.7 ± 0.1%
Bound complex (%) ([9]; pH 5.5, ITLC, 1 h): 98.2 ± 0.3%
Bound complex (%) ([9]; pH 5.5, ITLC, 4 h): 92.6 ± 0.3%
Bound complex (%) ([9]; pH 5.5, ITLC, 19 h): 93.6 ± 0.1%
Bound complex (%) ([9]; pH 5.5, ITLC, 24 h): 94.3 ± 0.6%
Bound complex (%) ([9]; pH 5.5, radio-HPLC, 25 h): 93.1 ± 0.1%
64Cu activity dissociated from the complex / transferred to EDTA ([9]; 24 h time point): ~5%
stability in mice and radioactivity level in blood and normal organs [10]: stable in mice and displayed low radioactivity level in the blood and the normal organs
